Experimental data from patent US12162840B2, “Herbicidal compositions” (SYNGENTA PARTICIPATIONS AG, priority 2018, dated 2024).

Assays:
Type in all cases: in vivo
[1] = test system: Amaranthus retoflexus (AMARE); test: B1 Post-emergence efficacy Test 1; conditions: post-emergence application, 1000 g/ha, evaluated after 13 days
Description: (§1) Seeds of a variety of test species are sown in standard soil in pots:—Solanum nigrum (SOLNI), Amaranthus retoflexus (AMARE), Setaria faberi (SETFA), Alopecurus myosuroides (ALOMY), Echinochloa crus-galli (ECHCG), Ipomoea hederacea (IPOHE), Lolium perenne (LOLPE). After 8 days cultivation (post-emergence) under controlled conditions in a glasshouse (at 24/16° C., day/night; 14 hours light; 65% humidity), the plants are sprayed with an aqueous spray solution derived from the formulation of the technical active ingredient in acetone/water (50:50) solution containing 0.5% Tween 20 (polyoxyethylene sorbitan monolaurate, CAS RN 9005-64-5). Compounds are applied at 1000 g/ha. The test plants are then grown in a glasshouse under controlled conditions in a glasshouse (at 24/16° C., day/night; 14 hours light; 65% humidity) and watered twice daily. After 13 days, the test is evaluated for the percentage damage caused to the plant. The biological activities are assessed on a five point scale (5=80-100%; 4=60-79%; 3=40-59%; 2=20-39%; 1=0-19%). A blank value in the table is indicative that the compound was not tested on that species.

[2] = test system: Echinochloa crus-galli (ECHCG); test: B1 Post-emergence efficacy Test 1; conditions: post-emergence application, 1000 g/ha, evaluated after 13 days
Description: as §1

[3] = test system: Ipomoea hederacea (IPOHE); test: B1 Post-emergence efficacy Test 1; conditions: post-emergence application, 1000 g/ha, evaluated after 13 days
Description: as §1

Lolium perenne (LOLPE) = test: B1 Post-emergence efficacy Test 1; conditions: post-emergence application, 1000 g/ha, evaluated after 13 days
Description: as §1

Setaria faberi (SETFA) = test: B1 Post-emergence efficacy Test 1; conditions: post-emergence application, 1000 g/ha, evaluated after 13 days
Description: as §1

Solanum nigrum (SOLNI) = test: B1 Post-emergence efficacy Test 1; conditions: post-emergence application, 1000 g/ha, evaluated after 13 days
Description: as §1

[4] = test system: warm season plant species; test: B2 Post-emergence efficacy Test 2, warm season plant species; conditions: 15 days after application, 0-100 scale, 0=no damage, 100=total kill; for Herbicidal activity, ABUTH: Abutilon theophrasti; for Herbicidal activity, AMARE: Amaranthus retroflexus; for Herbicidal activity, BIDPI: Bidens pilosa; for Herbicidal activity, BRAPL: Brachiaria plantaginea; for Herbicidal activity, DIGSA: Digitaria sanguinalis; for Herbicidal activity, ECHCG: Echinochloa crus galli; for Herbicidal activity, ELEIN: Eleisine indica; for Herbicidal activity, EPHHL: Euphorbia hetrophylla; for Herbicidal activity, GLXMA: Glycine max; for Herbicidal activity, IPOHE: Ipomoea hederacea; for Herbicidal activity, ORYSA: Orysa sativa; for Herbicidal activity, PANMI: Panicum miliaceum; for Herbicidal activity, SETFA: Setaria faberi; for Herbicidal activity, SIDSP: Sida spinosa; for Herbicidal activity, SORVU: Sorghum bicolour; for Herbicidal activity, XANST: Xanthium strumarium; for Herbicidal activity, ZEAMX: Zea mays
Description: Seeds of a variety of test species (see Table B1) were sown in standard soil in pots. After cultivation for 12 days (post-emergence) under controlled conditions in a glasshouse (at 24/18° C. or 20/16° C., at day/night; 16 hours light; 65% humidity), the plants were sprayed with an aqueous spray solution derived from the formulation of the technical active ingredient dissolved in IF50 (see Table B2 for composition) and adjuvant (Genapol XO80) was added to the spray solution at a rate of 0.2% v/v. [table] [table] After application, the test plants were grown in a glasshouse under controlled conditions (as above) and watered twice daily. Herbicidal activity was evaluated 15 days after application on a 0-100 scale. The results, where 0=no damage to test plant and 100=total kill of test plant are shown below in Tables 6 to 9.

Cc1nn(C)c(=O)c(-c2c(F)ccc(Cl)c2CCc2ccc(Cl)cc2)c1OC(=O)C(C)C [Compound 1.089]
percentage damage caused to the plant, five point scale, AMARE [1]: 5 (5=80-100%) | percentage damage caused to the plant, five point scale, ECHCG [2]: 5 (5=80-100%) | percentage damage caused to the plant, five point scale, IPOHE [3]: 5 (5=80-100%) | percentage damage caused to the plant, five point scale, LOLPE (Lolium perenne (LOLPE)): 5 (5=80-100%) | percentage damage caused to the plant, five point scale, SETFA (Setaria faberi (SETFA)): 5 (5=80-100%) | percentage damage caused to the plant, five point scale, SOLNI (Solanum nigrum (SOLNI)): 5 (5=80-100%) | Herbicidal activity, ABUTH ([4]; 15 g/Ha): 70 | Herbicidal activity, ABUTH ([4]; 30 g/Ha): 90 | Herbicidal activity, ABUTH ([4]; 60 g/Ha): 100 | Herbicidal activity, ABUTH ([4]; 125 g/Ha): 100 | Herbicidal activity, ABUTH ([4]; 250 g/Ha): 100 | Herbicidal activity, ABUTH ([4]; 500 g/Ha): 100 | Herbicidal activity, AMARE ([4]; 15 g/Ha): 80 | Herbicidal activity, AMARE ([4]; 30 g/Ha): 80 | Herbicidal activity, AMARE ([4]; 60 g/Ha): 90 | Herbicidal activity, AMARE ([4]; 125 g/Ha): 100 | Herbicidal activity, AMARE ([4]; 250 g/Ha): 100 | Herbicidal activity, AMARE ([4]; 500 g/Ha): 100 | Herbicidal activity, BIDPI ([4]; 15 g/Ha): 70 | Herbicidal activity, BIDPI ([4]; 30 g/Ha): 60 | Herbicidal activity, BIDPI ([4]; 60 g/Ha): 70 | Herbicidal activity, BIDPI ([4]; 125 g/Ha): 80 | Herbicidal activity, BIDPI ([4]; 250 g/Ha): 80 | Herbicidal activity, BIDPI ([4]; 500 g/Ha): 100 | Herbicidal activity, BRAPL ([4]; 15 g/Ha): 80 | Herbicidal activity, BRAPL ([4]; 30 g/Ha): 90 | Herbicidal activity, BRAPL ([4]; 250 g/Ha): 90 | Herbicidal activity, BRAPL ([4]; 500 g/Ha): 90 | Herbicidal activity, DIGSA ([4]; 15 g/Ha): 0 | Herbicidal activity, DIGSA ([4]; 30 g/Ha): 0 | Herbicidal activity, DIGSA ([4]; 60 g/Ha): 0 | Herbicidal activity, DIGSA ([4]; 125 g/Ha): 10 | Herbicidal activity, DIGSA ([4]; 250 g/Ha): 40 | Herbicidal activity, DIGSA ([4]; 500 g/Ha): 30 | Herbicidal activity, ECHCG ([4]; 15 g/Ha): 80 | Herbicidal activity, ECHCG ([4]; 30 g/Ha): 80 | Herbicidal activity, ECHCG ([4]; 60 g/Ha): 80 | Herbicidal activity, ECHCG ([4]; 125 g/Ha): 90 | Herbicidal activity, ECHCG ([4]; 250 g/Ha): 90 | Herbicidal activity, ECHCG ([4]; 500 g/Ha): 100 | Herbicidal activity, ELEIN ([4]; 15 g/Ha): 0 | Herbicidal activity, ELEIN ([4]; 30 g/Ha): 0 | Herbicidal activity, ELEIN ([4]; 60 g/Ha): 70 | Herbicidal activity, ELEIN ([4]; 125 g/Ha): 80 | Herbicidal activity, ELEIN ([4]; 250 g/Ha): 90 | Herbicidal activity, ELEIN ([4]; 500 g/Ha): 90 | Herbicidal activity, EPHHL ([4]; 15 g/Ha): 80 | Herbicidal activity, EPHHL ([4]; 30 g/Ha): 100 | Herbicidal activity, EPHHL ([4]; 60 g/Ha): 100 | Herbicidal activity, EPHHL ([4]; 125 g/Ha): 100 | Herbicidal activity, EPHHL ([4]; 250 g/Ha): 100 | Herbicidal activity, EPHHL ([4]; 500 g/Ha): 100 | Herbicidal activity, GLXMA ([4]; 30 g/Ha): 70 | Herbicidal activity, GLXMA ([4]; 60 g/Ha): 80 | Herbicidal activity, GLXMA ([4]; 250 g/Ha): 100 | Herbicidal activity, GLXMA ([4]; 500 g/Ha): 100 | Herbicidal activity, IPOHE ([4]; 15 g/Ha): 100 | Herbicidal activity, IPOHE ([4]; 30 g/Ha): 100 | Herbicidal activity, IPOHE ([4]; 60 g/Ha): 100 | Herbicidal activity, IPOHE ([4]; 125 g/Ha): 100 | Herbicidal activity, IPOHE ([4]; 250 g/Ha): 100 | Herbicidal activity, IPOHE ([4]; 500 g/Ha): 100 | Herbicidal activity, ORYSA ([4]; 15 g/Ha): 0 | Herbicidal activity, ORYSA ([4]; 30 g/Ha): 0 | Herbicidal activity, ORYSA ([4]; 60 g/Ha): 0 | Herbicidal activity, ORYSA ([4]; 125 g/Ha): 10 | Herbicidal activity, ORYSA ([4]; 250 g/Ha): 20 | Herbicidal activity, ORYSA ([4]; 500 g/Ha): 50 | Herbicidal activity, PANMI ([4]; 15 g/Ha): 0 | Herbicidal activity, PANMI ([4]; 30 g/Ha): 20 | Herbicidal activity, PANMI ([4]; 60 g/Ha): 50 | Herbicidal activity, PANMI ([4]; 125 g/Ha): 60 | Herbicidal activity, PANMI ([4]; 250 g/Ha): 80 | Herbicidal activity, PANMI ([4]; 500 g/Ha): 90 | Herbicidal activity, SETFA ([4]; 15 g/Ha): 0 | Herbicidal activity, SETFA ([4]; 30 g/Ha): 20 | Herbicidal activity, SETFA ([4]; 60 g/Ha): 30 | Herbicidal activity, SETFA ([4]; 125 g/Ha): 60 | Herbicidal activity, SETFA ([4]; 250 g/Ha): 60 | Herbicidal activity, SETFA ([4]; 500 g/Ha): 80 | Herbicidal activity, SIDSP ([4]; 30 g/Ha): 80 | Herbicidal activity, SIDSP ([4]; 60 g/Ha): 90 | Herbicidal activity, SIDSP ([4]; 125 g/Ha): 100 | Herbicidal activity, SIDSP ([4]; 250 g/Ha): 100 | Herbicidal activity, SIDSP ([4]; 500 g/Ha): 100 | Herbicidal activity, SORVU ([4]; 15 g/Ha): 0 | Herbicidal activity, SORVU ([4]; 30 g/Ha): 60 | Herbicidal activity, SORVU ([4]; 60 g/Ha): 70 | Herbicidal activity, SORVU ([4]; 125 g/Ha): 90 | Herbicidal activity, SORVU ([4]; 250 g/Ha): 90 | Herbicidal activity, SORVU ([4]; 500 g/Ha): 90 | Herbicidal activity, XANST ([4]; 30 g/Ha): 90 | Herbicidal activity, XANST ([4]; 60 g/Ha): 80 | Herbicidal activity, XANST ([4]; 125 g/Ha): 90 | Herbicidal activity, XANST ([4]; 250 g/Ha): 90 | Herbicidal activity, XANST ([4]; 500 g/Ha): 100 | Herbicidal activity, ZEAMX ([4]; 15 g/Ha): 0 | Herbicidal activity, ZEAMX ([4]; 30 g/Ha): 20 | Herbicidal activity, ZEAMX ([4]; 60 g/Ha): 30 | Herbicidal activity, ZEAMX ([4]; 125 g/Ha): 30 | Herbicidal activity, ZEAMX ([4]; 250 g/Ha): 90 | Herbicidal activity, ZEAMX ([4]; 500 g/Ha): 100
